According to article PMC6934184, “Selective DNA-PKcs inhibition extends the therapeutic index of localized radiotherapy and chemotherapy” (The Journal of Clinical Investigation, 2019):

Molecular target: T1, RET G691S (Homo sapiens, UniProt P07949, G691S)
T1 construct: purchased Thermo Fisher Scientific (Life Technologies) SelectScreen
Assay: SelectScreen LanthaScreen
Type: binding
Conditions: read-out: % displacement
Outline: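 SelectScreen broad panel; activity (Z'LYTE, Adapta) plus binding formats. ATP: Km app for CSF1R Z'LYTE; 10 for CAMK1 Adapta. Readout = % per kinase.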

T1 sequence (P07949 29-1114 G691S): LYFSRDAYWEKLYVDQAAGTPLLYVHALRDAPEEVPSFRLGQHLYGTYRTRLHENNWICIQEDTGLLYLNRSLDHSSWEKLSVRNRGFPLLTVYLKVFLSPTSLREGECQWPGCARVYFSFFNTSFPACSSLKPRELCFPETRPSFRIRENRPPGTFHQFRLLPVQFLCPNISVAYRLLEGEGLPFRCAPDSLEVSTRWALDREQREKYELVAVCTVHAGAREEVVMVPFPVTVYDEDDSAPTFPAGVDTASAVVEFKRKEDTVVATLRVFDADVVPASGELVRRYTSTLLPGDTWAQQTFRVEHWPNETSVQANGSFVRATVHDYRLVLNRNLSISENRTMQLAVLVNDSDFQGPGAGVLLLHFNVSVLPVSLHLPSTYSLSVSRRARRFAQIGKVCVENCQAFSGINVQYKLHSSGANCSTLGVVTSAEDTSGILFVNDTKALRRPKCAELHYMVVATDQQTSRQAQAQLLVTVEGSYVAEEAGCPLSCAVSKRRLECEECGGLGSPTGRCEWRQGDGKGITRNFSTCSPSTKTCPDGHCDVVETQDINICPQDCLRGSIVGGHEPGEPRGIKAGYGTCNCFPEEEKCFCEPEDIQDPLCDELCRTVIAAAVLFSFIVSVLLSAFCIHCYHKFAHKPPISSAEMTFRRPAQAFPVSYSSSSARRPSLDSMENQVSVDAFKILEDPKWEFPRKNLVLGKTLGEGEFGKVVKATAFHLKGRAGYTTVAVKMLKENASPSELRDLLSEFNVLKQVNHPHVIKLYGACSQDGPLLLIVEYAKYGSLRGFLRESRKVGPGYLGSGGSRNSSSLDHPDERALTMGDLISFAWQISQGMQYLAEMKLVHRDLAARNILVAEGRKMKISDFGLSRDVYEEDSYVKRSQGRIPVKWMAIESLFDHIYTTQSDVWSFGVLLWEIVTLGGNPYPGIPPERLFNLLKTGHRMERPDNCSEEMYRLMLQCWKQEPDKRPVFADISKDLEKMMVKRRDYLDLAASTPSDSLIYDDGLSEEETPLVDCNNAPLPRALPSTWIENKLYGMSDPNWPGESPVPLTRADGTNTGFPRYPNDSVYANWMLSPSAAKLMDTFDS

SMILES: CN(C(=O)CN1CCOCC1)c1ccc2sc3c(-c4cccc5c(=O)cc(N6CC7CCC(C6)O7)oc45)cccc3c2c1 [NU5455]
- inhibition at 1 µM: -1.8%
